Publication PMC8003975 (Cancers, 2021)
≈ marks a conversion by molar mass, not a printed value.

Experiments:
[1] = tested on: human normal oral keratinocytes (NOK); experiment: Cytotoxicity assay (Cell Counting Kit-8); format: cell-based; settings: 48 h
Excerpt: (§1) Normal oral keratinocytes (NOK) (kindly gifted by Dr. Karl Mugner, Tuffs University, Boston, MA, USA) were maintained in Keratinocyte SFM medium supplemented with EGF and bovine pituitary extract (GIBCO, Life Technologies, Berkeley, MO, USA) and 1% penicillin/ streptomycin. HNC cell line Cal27 was purchased from the ATCC. JHU029 (JHU-29) and JHU022 (JHU-22) cell lines were procured from the Johns Hopkins University (Baltimore, MD, USA). The Cal27 and JHU022 cells were maintained in Dulbecco’s Modified Eagle Medium (DMEM), and JHU029 cells were in RPMI1640 (Sigma, St. Louis, MO, USA) media supplemented with 10% FBS and 1% penicillin/ streptomycin (Sigma-Aldrich, St. Louis, MO, USA) in a humidified CO2 incubator. The cell lines are routinely tested in our laboratory to rule out mycoplasma contamination using a commercial MycoAlert™ Mycoplasma Detection kit (Lonza, Morrisville, NC, USA). Cal27 cells are tongue origin and JHU022 and JHU029 cells are from laryngx origin.
(§2) Cal27, JHU029, JHU022 and NOK were seeded in 96 well-plate (5000 cells/well) and cells were treated with different concentration of M-I for 48 h. There were untreated control and DMSO treated vehicle control group for comparison. Cytotoxicity assay was performed using Cell Counting Kit-8 (Dojindo Molecular Technology, Rockville, MD, USA) according to manufacturer instruction.

Cal27 cells = experiment: Cytotoxicity assay (Cell Counting Kit-8); format: cell-based; settings: Homo sapiens, CAL-27, 48 h
Excerpt: as §1, §2

JHU029 cells = experiment: Cytotoxicity assay (Cell Counting Kit-8); format: cell-based; settings: Homo sapiens, 48 h
Excerpt: as §1, §2

JHU022 cells = experiment: Cytotoxicity assay (Cell Counting Kit-8); format: cell-based; settings: Homo sapiens, 48 h
Excerpt: as §1, §2

[2] = Pharmacokinetic study, single dose IP or oral gavage; format: in vivo, C57Bl/6 male mice; settings: male C57Bl/6 mouse blood
survivin = experiment: Western blot of treated HNC cells; format: cell-based, human; settings: Cal27 and JHU029 cells, 48 hr; 2% BME or 10 µg/mL M-I
Procedure: Representative Western blot image for c-Myc, survivin and cyclin D1 expression in Cal27 and JHU029 cells with treatment of BME or M-I. The same membrane used in panel A was reprobed. Actin was used as internal control. Quantitative representation of Western blot band intensities (right panel). Small bar indicates standard error (*** p < 0.001).
Bitter melon extract (BME) was prepared from the Chinese variety of young bitter melons (raw and green) as described previously [17]. Briefly, BME was prepared by aqueous extraction from whole fruit without seeds using a household juicer at room temperature with subsequent centrifugation at 15000× g at 4 °C for 30 min. BME was stored at −80 °C for further analysis. Cal27 and JHU029 cells were treated with 2% BME and JHU022 cells were treated with 3% BME as described previously [17, 21]. […] The powder was dissolved in DMSO and added to the cells at different concentrations. Based on cytotoxicity data, Cal27 and JHU029 cells were treated with 10 µg/mL and JHU022 cells were treated with 20 µg/mL dose of M-I and incubated for 48 hr for further experiments. All the experiments were done at least in triplicate.
HRP conjugated anti-mouse or anti-rabbit secondary antibodies were purchased from Bio-Rad (Hercules, CA, USA). The blot was reprobed with HRP conjugated β-actin antibody (1:5000; SBT) to compare protein load in each lane. […]

insulin secretion = settings: cited from earlier work
[3] = literature-reported biology of the tentatively identified metabolite; no reference given; cited from earlier work

CC(C)=CC(O)CC(C)[C@H]1CC[C@@]2(C)[C@@H]3[C@@H](O)C=C4[C@@H](CC[C@H](O)C4(C)C)[C@]3(C=O)CC[C@]12C (stereo partly drawn) [M-I, (3S, 7S, 8S, 9R, 10R, 13R, 14S, 17R) 3,7-dihydroxy-17-(4-hydroxy-6-methylhept-5-en-2-yl)-4,4,13,14-tetramethyl-2,3,7,8,10,11, 12,15,16,17-decahydro-1H-cyclopenta[a]phenanthrene-9-carbaldehyde]
cytotoxic effect on normal oral keratinocytes [1]: minimum effect
IC50 (Cal27 cells): 7 µg/mL (≈ 14.8 µM)
IC50 (JHU029 cells): 6.5 µg/mL (≈ 13.8 µM)
IC50 (JHU022 cells): 17 µg/mL (≈ 36 µM)
stability in mouse blood [2]: stable
survivin expression (survivin): significant inhibition
insulin secretion in vitro (insulin secretion): stimulate insulin secretion
Reported Biology [3]: • stimulate insulin secretion in vitro • diabetes-associated cardiac fibrosis.
